Results on 16 molecules are retold here after PubChem BioAssay (NCI).

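Cultured in 96-well plates, cells were exposed to test compound for 48 hours across five concentrations. TGI: total growth inhibition.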

Test systems include A549 NSCLC; BT-549 breast; TK-10 renal; SK-MEL-28 melanoma; SK-OV-3 ovarian; NCI-H23 lung; SN12C renal; PC-3 prostate; SK-MEL-5 melanoma; MDA-MB-231 breast.
Common to all, as to test: growth of human tumour cells (NCI), 48 h

For `CC(NC(=O)/C(C#N)=C/c1ccc2[nH]ccc2c1)c1ccccc1` (stereo unspecified), the TGI with A549 NSCLC was 55.4 µM; in the assay on BT-549 breast it was 23.5 µM; in the assay with TK-10 renal it was 50.1 µM; in the assay with SK-MEL-28 melanoma it was 36.9 µM; in the assay with SK-OV-3 ovarian, 40.4 µM; in the assay on NCI-H23 lung, 43.3 µM. Moreover, the TGI in the assay on SN12C renal turned out to be 35 µM; in the assay with PC-3 prostate, 39.3 µM; in the assay on SK-MEL-5 melanoma, 33 µM.
Consider `NC(=O)c1csc(CCCCCCc2nc(C(N)=O)cs2)n1`, for which the TGI in the assay with A549 NSCLC, with TK-10 renal, with SK-MEL-28 melanoma, with SK-OV-3 ovarian, in the assay on NCI-H23 lung and with SN12C renal was over 100 µM in each case. In the assay with SK-MEL-5 melanoma, this molecule came in with a TGI of over 100 µM.
Turning to `CC(=O)NCC1(c2ccccc2)CCN(CC2COc3ccccc3O2)CC1` (stereo unspecified), the TGI in the assay on A549 NSCLC, in the assay on MDA-MB-231 breast, with TK-10 renal, in the assay on SK-MEL-28 melanoma, with SK-OV-3 ovarian and in the assay with NCI-H23 lung was over 100 µM in each case. In addition, the TGI with SN12C renal, in the assay with PC-3 prostate and in the assay with SK-MEL-5 melanoma was over 100 µM each time.
Take `CC1(C)C=C(/C=N/Nc2ccc(Br)cc2)C(C#N)=C(O)C1(C#N)C#N`: the TGI in the assay on A549 NSCLC, in the assay with MDA-MB-231 breast, in the assay with TK-10 renal, in the assay on SK-MEL-28 melanoma, in the assay on SK-OV-3 ovarian and with NCI-H23 lung was over 100 µM throughout. Moreover, the TGI in the assay with SN12C renal is over 100 µM; with PC-3 prostate, 63.9 µM; in the assay on SK-MEL-5 melanoma it was over 100 µM.
As for `C[C@@H]1C[C@@H](O)[C@@]2(O)C13CC(=O)OC(C3)[C@@H](C)[C@@]2(C)CO` (stereo partly specified), the TGI with A549 NSCLC, in the assay with MDA-MB-231 breast, in the assay on TK-10 renal, in the assay on SK-MEL-28 melanoma, in the assay with SK-OV-3 ovarian and with NCI-H23 lung was over 100 µM in each case. The TGI in the assay on SN12C renal, in the assay on PC-3 prostate and in the assay on SK-MEL-5 melanoma was over 100 µM throughout.
Regarding `COc1ccc(-c2c3c(n(C4OC(CO)C(O)C(O)C4O)c(=S)c2C#N)CC(C)(C)CC3=O)cc1` (stereo unspecified), the TGI in the assay with A549 NSCLC, with MDA-MB-231 breast, in the assay on BT-549 breast, in the assay with TK-10 renal, in the assay on SK-MEL-28 melanoma and in the assay on NCI-H23 lung was over 100 µM each time. The TGI with SN12C renal, in the assay on PC-3 prostate and in the assay with SK-MEL-5 melanoma was over 100 µM each time.
For `C=CCNC(=O)/C(Cc1cc(Br)c(OC)c(Br)c1O)=N\O`, the TGI with A549 NSCLC came out at 53.4 µM; in the assay with MDA-MB-231 breast, 32.6 µM; with BT-549 breast, 18.3 µM; in the assay with TK-10 renal it was 64.8 µM; in the assay with SK-MEL-28 melanoma it was 31 µM; in the assay with NCI-H23 lung, 18.1 µM. Also, the TGI in the assay on PC-3 prostate was over 100 µM; with SK-MEL-5 melanoma it was 11.6 µM.
Regarding `CC(=O)c1c(O)ccc2c1CC(CC=O)O2` (stereo unspecified), the TGI in the assay with A549 NSCLC, in the assay with TK-10 renal, in the assay on SK-MEL-28 melanoma, with SK-OV-3 ovarian, with NCI-H23 lung and in the assay on SN12C renal was over 100 µM each time. In the assay with SK-MEL-5 melanoma, the TGI was over 100 µM.
`COc1ccc2c(c1)N(C(C)=O)CN1C(=O)CCC21` (stereo unspecified): the TGI with A549 NSCLC, in the assay on MDA-MB-231 breast, in the assay with TK-10 renal, in the assay on SK-MEL-28 melanoma, in the assay on SK-OV-3 ovarian and in the assay with NCI-H23 lung was over 100 µM each time. Besides, the TGI with SN12C renal, in the assay on PC-3 prostate and in the assay on SK-MEL-5 melanoma was over 100 µM each time.
Consider `COc1ccc(Nc2nc(N)c(C(=O)c3ccc(OC)cc3)s2)cc1`, for which the TGI in the assay with A549 NSCLC was over 44.5 µM; with MDA-MB-231 breast it was over 72.4 µM; in the assay with TK-10 renal it was over 60.7 µM; with SK-MEL-28 melanoma it was over 68.6 µM; in the assay on SK-OV-3 ovarian it was 28.7 µM; in the assay with NCI-H23 lung, over 93.4 µM. The TGI was over 64.5 µM in the assay with SN12C renal, 22.1 µM in the assay with PC-3 prostate and over 100 µM in the assay with SK-MEL-5 melanoma.
On to `O=C(O)c1cc(-c2ccccc2O)nc2ccccc12`, for which the TGI with A549 NSCLC, in the assay with TK-10 renal, with SK-MEL-28 melanoma, in the assay with SK-OV-3 ovarian, with NCI-H23 lung and in the assay on SN12C renal was over 100 µM each time. The molecule further showed a TGI in the assay on SK-MEL-5 melanoma of over 100 µM.
Turning to `CC1=CC2(O)OC3(CC2=C(C)C)C(C)CCC13` (stereo unspecified), the TGI in the assay with A549 NSCLC, with MDA-MB-231 breast, in the assay with BT-549 breast, in the assay on TK-10 renal, in the assay with SK-OV-3 ovarian and in the assay on NCI-H23 lung was over 100 µM throughout. The TGI in the assay on SN12C renal and in the assay on SK-MEL-5 melanoma was over 100 µM each time.
`COC(=O)[C@H]1C=C[C@@H](C)n2c(=O)c3ccccc3c(=O)n21`: the TGI with A549 NSCLC, in the assay with TK-10 renal, in the assay with SK-MEL-28 melanoma, with SK-OV-3 ovarian, in the assay with NCI-H23 lung and with SN12C renal was over 100 µM in each case. In addition, in the assay on SK-MEL-5 melanoma, the TGI is over 100 µM.
Turning to `CN(C)c1ncnc2c1ncn2C1C=CC(COS(N)(=O)=O)C1` (stereo unspecified), the TGI in the assay on A549 NSCLC, in the assay on BT-549 breast, in the assay on SK-MEL-28 melanoma, with SK-OV-3 ovarian, in the assay with NCI-H23 lung and in the assay with SN12C renal was over 100 µM throughout. In addition, the TGI in the assay with PC-3 prostate and with SK-MEL-5 melanoma was over 100 µM in each case.
As to `C#CCCOC1(OC)N=NC(C)(C)O1` (stereo unspecified), the TGI in the assay with A549 NSCLC, in the assay on MDA-MB-231 breast, in the assay on SK-MEL-28 melanoma, in the assay with NCI-H23 lung, in the assay on SN12C renal and in the assay on PC-3 prostate was over 100 µM each time. Moreover, the TGI in the assay on SK-MEL-5 melanoma was over 100 µM.
On to `CC1(C)OC(=O)C(C)(C)OC1=O`, for which the TGI in the assay with A549 NSCLC, in the assay with MDA-MB-231 breast, with TK-10 renal, in the assay with SK-MEL-28 melanoma, in the assay on SK-OV-3 ovarian and in the assay with NCI-H23 lung was over 100 µM each time. Also, the TGI with SN12C renal, in the assay on PC-3 prostate and in the assay with SK-MEL-5 melanoma was over 100 µM each time.
